Results published in PubChem BioAssay AID328 (DTP/NCI, 2004).
Where “and” joins values, the source holds several entries; their conditions need not be identical. Identical values can stand only once. Inconclusive results and toxic doses are left out.

System: BDF1 mice, P388 leukemia ip, median survival T/C
Test: NCI In Vivo Anticancer Drug Screen. Data for tumor model P388 Leukemia (intraperitoneal) in B6D2F1 (BDF1) mice
Conditions: endpoint: median survival time, higher = longer survival
Method in brief: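 In tumour-bearing mice, survival after compound treatment is set against the vehicle group and given as a quotient.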

[1] = dose: 6.25 mg/kg/injection, schedule: Q01DX009 (ip), vehicle: saline
[2] = dose: 12.5 mg/kg/injection, schedule: Q01DX009 (ip), vehicle: saline
[3] = dose: 25.0 mg/kg/injection, schedule: Q01DX009 (ip), vehicle: saline
[4] = dose: 25.0 mg/kg/injection, schedule: Q04DX003 (ip), vehicle: Klucel (hydroxypropylcellulose) (HPC)
[5] = dose: 50.0 mg/kg/injection, schedule: Q01DX009 (ip), vehicle: saline
[6] = dose: 100.0 mg/kg/injection, schedule: Q01DX009 (ip), vehicle: saline
[7] = dose: 100.0 mg/kg/injection, schedule: Q04DX003 (ip), vehicle: Klucel (hydroxypropylcellulose) (HPC)
[8] = dose: 200.0 mg/kg/injection, schedule: Q01DX009 (ip), vehicle: saline
[9] = dose: 200.0 mg/kg/injection, schedule: Q04DX003 (ip), vehicle: Klucel (hydroxypropylcellulose) (HPC)
[10] = dose: 400.0 mg/kg/injection, schedule: Q04DX003 (ip), vehicle: Klucel (hydroxypropylcellulose) (HPC)
[11] = dose: 25.0 mg/kg/injection, schedule: Q01DX009 (ip), vehicle: Klucel (hydroxypropylcellulose) (HPC)
[12] = dose: 50.0 mg/kg/injection, schedule: Q01DX009 (ip), vehicle: Klucel (hydroxypropylcellulose) (HPC)
[13] = dose: 50.0 mg/kg/injection, schedule: Q04DX003 (ip), vehicle: saline with Tween-80
[14] = dose: 100.0 mg/kg/injection, schedule: Q04DX003 (ip), vehicle: saline with Tween-80
[15] = dose: 200.0 mg/kg/injection, schedule: Q04DX003 (ip), vehicle: saline with Tween-80

## Cc1nn(-c2ccccc2)c(N)c1C#N
[1]
  T/C: 111 % of control
[2]
  T/C: 94 % of control
dose: 12.5 mg/kg/injection, schedule: Q04DX003 (ip), vehicle: saline
  T/C: 98 % of control
[3]
  T/C: 102 % of control
[4]
  T/C: 98 % of control
dose: 25.0 mg/kg/injection, schedule: Q04DX003 (ip), vehicle: saline
  T/C: 163 % of control
[5]
  T/C: 111 % of control
dose: 50.0 mg/kg/injection, schedule: Q04DX003 (ip), vehicle: Klucel (hydroxypropylcellulose) (HPC)
  T/C: 98 % of control
dose: 50.0 mg/kg/injection, schedule: Q04DX003 (ip), vehicle: saline
  T/C: 86 % of control
[6]
  T/C: 96 % of control
[7]
  T/C: 121 % of control
dose: 100.0 mg/kg/injection, schedule: Q04DX003 (ip), vehicle: saline
  T/C: 87 % of control
[8]
  T/C: 111 % of control
[9]
  T/C: 113 % of control
dose: 200.0 mg/kg/injection, schedule: Q04DX003 (ip), vehicle: saline
  T/C: 269 % of control
dose: 400.0 mg/kg/injection, schedule: Q01DX009 (ip), vehicle: saline
  T/C: 105 % of control
[10]
  T/C: 102 % of control

## Cn1c(N)c(N=O)c(=O)n(C)c1=O
dose: 3.12 mg/kg/injection, schedule: Q01DX009 (ip), vehicle: saline
  T/C: 109 % of control
[1]
  T/C: 100 % of control
[2]
  T/C: 100 % of control
[11]
  T/C: 95 % of control
[12]
  T/C: 90 % of control
dose: 100.0 mg/kg/injection, schedule: Q04DX003 (ip), vehicle: alcohol
  T/C: 109 % of control
dose: 125.0 mg/kg/injection, schedule: Q01DX010 (ip), vehicle: other
  T/C: 109 % of control
dose: 200.0 mg/kg/injection, schedule: Q04DX003 (ip), vehicle: alcohol
  T/C: 100 % of control
dose: 250.0 mg/kg/injection, schedule: Q01DX010 (ip), vehicle: other
  T/C: 86 % of control
dose: 400.0 mg/kg/injection, schedule: Q04DX003 (ip), vehicle: alcohol
  T/C: 100 % of control

## CCC(c1ccc2cc(OC)ccc2c1)C(CC(=O)O)C(=O)OC (centres undefined)
[7]
  T/C: 87 % of control
[9]
  T/C: 91 % of control
[10]
  T/C: 91 % of control

## C=CN1C(=O)N(C=C)C(C)(CC(C)C)C1=O (centres undefined)
[13]
  T/C: 104 % of control
[14]
  T/C: 109 % of control
[15]
  T/C: 100 % of control

## O=[N+]([O-])c1ccc(O)c(C2N(Cc3ccc(N(CCCl)CCCl)cc3)CCCN2Cc2ccc(N(CCCl)CCCl)cc2)c1
dose: 12.5 mg/kg/injection, schedule: Q01DX010 (ip), vehicle: carboxymethylcellulose (CMC)
  T/C: 120 % of control
dose: 25.0 mg/kg/injection, schedule: Q01DX010 (ip), vehicle: carboxymethylcellulose (CMC)
  T/C: 120 % of control
dose: 100.0 mg/kg/injection, schedule: Q01DX010 (ip), vehicle: carboxymethylcellulose (CMC)
  T/C: 165 % of control

## O=C(CCCN1CCC(C(=O)c2ccc(Cl)cc2)CC1)c1ccc(F)cc1
dose: 12.5 mg/kg/injection, schedule: Q01DX009 (ip), vehicle: Klucel (hydroxypropylcellulose) (HPC)
  T/C: 112 % of control

## CCc1ccc(NC(=O)N(CCCl)N=O)cc1
dose: 0.62 mg/kg/injection, schedule: Q04DX003 (ip), vehicle: Klucel (hydroxypropylcellulose) (HPC)
  T/C: 109 % of control
dose: 0.8 mg/kg/injection, schedule: Q01DX009 (ip), vehicle: gum acacia
  T/C: 158 % of control
dose: 1.3 mg/kg/injection, schedule: Q01DX009 (ip), vehicle: gum acacia
  T/C: 154 % of control
dose: 2.0 mg/kg/injection, schedule: Q01DX009 (ip), vehicle: gum acacia
  T/C: 153 % of control and 187 % of control
dose: 3.0 mg/kg/injection, schedule: Q01DX009 (ip), vehicle: gum acacia
  T/C: 176 % of control
dose: 4.5 mg/kg/injection, schedule: Q01DX009 (ip), vehicle: gum acacia
  T/C: 196 % of control
dose: 5.0 mg/kg/injection, schedule: Q04DX003 (ip), vehicle: Klucel (hydroxypropylcellulose) (HPC)
  T/C: 177 % of control and 204 % of control
dose: 7.0 mg/kg/injection, schedule: Q01DX009 (ip), vehicle: gum acacia
  T/C: 230 % of control and 236 % of control
dose: 8.0 mg/kg/injection, schedule: Q04DX003 (ip), vehicle: Klucel (hydroxypropylcellulose) (HPC)
  T/C: 214 % of control
dose: 11.0 mg/kg/injection, schedule: Q01DX009 (ip), vehicle: gum acacia
  T/C: 250 % of control
dose: 12.0 mg/kg/injection, schedule: Q04DX003 (ip), vehicle: Klucel (hydroxypropylcellulose) (HPC)
  T/C: 238 % of control
dose: 17.0 mg/kg/injection, schedule: Q01DX009 (ip), vehicle: gum acacia
  T/C: 196 % of control
dose: 18.0 mg/kg/injection, schedule: Q04DX003 (ip), vehicle: Klucel (hydroxypropylcellulose) (HPC)
  T/C: 233 % of control and 285 % of control
dose: 25.0 mg/kg/injection, schedule: Q01DX009 (ip), vehicle: gum acacia
  T/C: 212 % of control
[4]
  T/C: 300 % of control
dose: 37.0 mg/kg/injection, schedule: Q04DX003 (ip), vehicle: Klucel (hydroxypropylcellulose) (HPC)
  T/C: 300 % of control

## C1=CC(c2ccccc2)N2C(C(c3ccccc3)=N1)C2c1ccccc1 (centres undefined)
dose: 25.0 mg/kg/injection, schedule: Q04DX003 (ip), vehicle: saline with Tween-80
  T/C: 98 % of control
[13]
  T/C: 94 % of control
[14]
  T/C: 100 % of control
[15]
  T/C: 103 % of control

## C[N+](C)(C)N=C1CCC2(CC1)c1ccccc1-c1ccccc12
dose: 5.15 mg/kg/injection, schedule: Q04DX003 (ip), vehicle: saline
  T/C: 95 % of control
[1]
  T/C: 95 % of control
dose: 10.31 mg/kg/injection, schedule: Q04DX003 (ip), vehicle: saline
  T/C: 100 % of control
[2]
  T/C: 91 % of control
dose: 20.62 mg/kg/injection, schedule: Q04DX003 (ip), vehicle: saline
  T/C: 115 % of control
[3]
  T/C: 100 % of control
dose: 35.0 mg/kg/injection, schedule: Q01DX009 (ip), vehicle: saline
  T/C: 113 % of control
dose: 41.25 mg/kg/injection, schedule: Q04DX003 (ip), vehicle: saline
  T/C: 104 % of control
dose: 55.0 mg/kg/injection, schedule: Q01DX009 (ip), vehicle: saline
  T/C: 90 % of control

## Cc1cc(C)n(CO)n1
[11]
  T/C: 96 % of control
[12]
  T/C: 107 % of control
[7]
  T/C: 108 % of control
[9]
  T/C: 100 % of control

## O=C(N/N=C\c1c(Cl)cccc1Cl)c1ccccc1
dose: 50.0 mg/kg/injection, schedule: Q04DX003 (ip), vehicle: acetone
  T/C: 113 % of control
dose: 100.0 mg/kg/injection, schedule: Q04DX003 (ip), vehicle: acetone
  T/C: 95 % of control
dose: 200.0 mg/kg/injection, schedule: Q04DX003 (ip), vehicle: acetone
  T/C: 90 % of control

## Cc1ccc2oc(=O)c(-c3cc4oc(=O)sc4cc3O)c(O)c2c1
dose: 100.0 mg/kg/injection, schedule: Q01DX001 (ip), vehicle: Klucel (hydroxypropylcellulose) (HPC)
  T/C: 100 % of control
dose: 200.0 mg/kg/injection, schedule: Q01DX001 (ip), vehicle: Klucel (hydroxypropylcellulose) (HPC)
  T/C: 100 % of control
dose: 400.0 mg/kg/injection, schedule: Q01DX001 (ip), vehicle: Klucel (hydroxypropylcellulose) (HPC)
  T/C: 106 % of control

## CC1(C)C2CCC1(C)C(Cl)C2 (centres undefined)
dose: 100.0 mg/kg/injection, schedule: Q04DX002 (ip), vehicle: saline with Tween-80
  T/C: 100 % of control
dose: 200.0 mg/kg/injection, schedule: Q04DX002 (ip), vehicle: saline with Tween-80
  T/C: 103 % of control
dose: 400.0 mg/kg/injection, schedule: Q04DX002 (ip), vehicle: saline with Tween-80
  T/C: 107 % of control

## NOCc1ccsn1
dose: 200.0 mg/kg/injection, schedule: Q04DX003 (ip), vehicle: other
  T/C: 95 % of control
dose: 400.0 mg/kg/injection, schedule: Q04DX003 (ip), vehicle: other
  T/C: 90 % of control

## CC/C(=N\NS(=O)(=O)c1ccc(C)cc1)c1ccc(OC)c(OC)c1
[5]
  T/C: 96 % of control
[6]
  T/C: 96 % of control
[8]
  T/C: 92 % of control

## CC(=O)OCc1cc2ccccc2nc1C
[14]
  T/C: 100 % of control
dose: 200.0 mg/kg/injection, schedule: Q01DX009 (ip), vehicle: saline with Tween-80
  T/C: 95 % of control
[15]
  T/C: 104 % of control
dose: 400.0 mg/kg/injection, schedule: Q01DX009 (ip), vehicle: saline with Tween-80
  T/C: 95 % of control
dose: 400.0 mg/kg/injection, schedule: Q04DX003 (ip), vehicle: saline with Tween-80
  T/C: 100 % of control
